Data: patent US10188706B2, “Plasminogen activator mutants as anti-fibrinolytic agents” (HADASIT MEDICAL RESEARCH SERVICES & DEVELOPMENT LIMITED, priority 2012, dated 2019)
Entries after “also recorded” stand apart in the source; their conditions may differ.

What was measured:
[1] = system: trauma patients; conditions: early administration of a short course (Ker K. ibid.); cited from earlier work
[2] = system: patients undergoing elective surgery; conditions: 53 studies, 3836 participants (Ker K. et al. 2012); cited from earlier work
[3] = target: T1, uPA (Homo sapiens, UniProt P00749); experiment: Plasminogen activator activity, chromogenic assay without fibrin, activation by uPA; format: biochemical; conditions: plasminogen 500 nM, uPA 20 nM; mutants 100 nM or TA 200 nM alone; FIG. 2D
T1 construct: Single-chain urokinase (uPA) was purified, characterized as previously reported; made in house
Method: Plasminogen Activator Activity
Plasminogen activator activity was determined by adding tPA (50 nM) or uPA (20 nM), to a reaction mixture containing Glu-plasminogen and the plasmin chromogenic substrate Spectrazyme PL (100 μM) in phosphate-buffered saline (PBS) at 37° C., and the light absorbance at 405 nm was measured continuously over time. The initial velocities of plasmin generation at the different conditions were calculated from the change in the A405 nm over time. The initial velocity of the reaction at each plasminogen concentration was obtained by calculating the change in the rate of A405 over different time intervals and the results were expressed as the change in optical density (ΔOD) per minute, which represents the slope of the initial velocity of plasminogen activation (Higazi A et al., J Biol Chem. (1995), 270(29):17375-80).

[4] = system: mice treated with Coumadin and subjected to CHI; experiment: Closed head injury (CHI) in mice anticoagulated with warfarin (Coumadin); format: in vivo, mouse; conditions: for extent of ICH post CHI after anticoagulation: warfarin prior to CHI
Description: (§1) Closed Head Injury (CHI) Model
(§2) Head trauma was induced by using a modified weight-drop device, as previously described (Chen Y. et al. (1996) J. Neurotrauma, 13:557-568). Briefly, after induction of ether anesthesia, a midline longitudinal incision was made, the skin was retracted and the skull was exposed. The left anterior frontal area was identified and a Teflon tipped cone (2-mm diameter) was placed 1 mm lateral to the midline, in the midcoronal plane. The head was held in place manually and a 75-g weight was dropped on the cone from a height of 18 cm, resulting in focal injury to the left hemisphere. After trauma, the mice received supporting oxygenation with 95% 02 for no longer than 2 min and were then returned to their cages. In sham controls only anesthesia and skin incision were carried out.

[5] = system: WT mice subjected to CHI; experiment: Closed head injury (CHI) model of TBI in WT mice; format: in vivo, mouse; conditions: WT mice, IV immediately after or 2 hrs after CHI, Hgb at 2 or 8 hrs, MRI at 24 hrs
Method: Eight to twelve weeks old C57 mice obtained from Harlan, Israel. Mice were administered standard laboratory chow and water ad libitum, and kept in controlled temperature and light conditions. Animal experiments were carried out according to the guidelines of the Hebrew University-Institutional Committee for Care and Use of Laboratory Animals, and with the committee's approval.
as §1, §2

[6] = system: tPA-/- and uPA-/- mice subjected to CHI; experiment: Closed head injury (CHI) model in tPA-/- and uPA-/- mice; format: in vivo, mouse; conditions: 5 mg/kg each
Description: as §1, §2

For `NC[C@H]1CC[C@H](C(=O)O)CC1` [TA, tranexamic acid, reference compound], the “death, vascular occlusive events and frequency of blood transfusions” value [1] is given as “reduced death, vascular occlusive events and the frequency of blood transfusions”, the “need for blood transfusion” value [2] is given as “reduced the need for blood transfusion by a third” and the “plasminogen activation by uPA in the absence of fibrin (change in OD per minute)” value [3] is given as “dramatically stimulated; also recorded: mimics the effect of fibrin only in the case of uPA”.

In the case of `CC(=O)CC(c1ccccc1)c1c(O)c2ccccc2oc1=O` (stereo not drawn) [warfarin], the “extent of ICH post CHI after anticoagulation” value ([4]; WT mice) is reported as “increased the extent of ICH”, the “mean INR at the time of trauma” value ([4]; mice anticoagulated with warfarin prior to CHI) is reported as 2.5 and the “extent of ICH post CHI after anticoagulation” value ([4]; tPA-/- or uPA-/- mice) is reported as “had no such effect”.

In the case of “WT-tPA: wild type tissue plasminogen activator; recombinant tPA from Genentech”, the “intracerebral hemorrhage (MRI, extravasation of Hgb) post CHI” value [5] is reported as “increased the extent of intracerebral hemorrhage”, the “intracerebral hemorrhage (MRI, extravasation of Hgb) post CHI” value ([5]; listed as WT tPA) is reported as “exacerbated” and the “injury phenotype (ICH) of knock-out mice after exogenous plasminogen activator” value [6] is reported as “rescued”.
